Data from patent US10383850B2, “Indazole and indole derivatives as inhibitors of retinoic acid related orphan receptor gamma (ROR gamma) for the treatment of immune-related diseases” (ORCA PHARMACEUTICALS LIMITED, priority 2014, dated 2019).

Tested on: Human CD4+CCR6+ T cells (TH17 cell differentiation)
Test: Human Th17 cell differentiation assay (IL-17A in extracellular media by ELISA)
Assay type: cell-based
Conditions: 96 h, IL17A in extracellular media by sandwich ELISA, 4 days with cytokine cocktail and antiCD2/CD3/28 beads, read-out: Inhibition of TH17 cell differentiation - Mean IC50

Structure (SMILES)	IC50 [nM]
O=C(O)c1ccc(-n2cc(Cc3c(Cl)cccc3C(F)(F)F)c3cccnc32)cc1 [Compound 1, 4-(3-{[2-chloro-6-(trifluoromethyl)phenyl]methyl}-1H-pyrrolo[2,3-b]pyridin-1-yl)benzoic acid]	142
COc1cccc(F)c1C(=O)c1cn(-c2ccc(C(=O)O)cc2)c2ccccc12 [Compound 4, 4-[3-(2-fluoro-6-methoxy-benzoyl)indol-1-yl]benzoic acid]	1490
COc1cccc(F)c1C(=O)c1cn(-c2ccc(C(=O)O)cc2)c2c(F)cccc12 [Compound 5, 4-[7-fluoro-3-(2-fluoro-6-methoxy-benzoyl)indol-1-yl]benzoic acid]	821
O=C(O)c1ccc(-n2cc(Cc3c(Cl)cccc3C(F)(F)F)c3ccccc32)cc1O [Compound 6, 4-[3-[[2-chloro-6-(trifluoromethyl)phenyl]methyl]indol-1-yl]-2-hydroxy-benzoic acid]	4.81
Cc1cccc2c(C(=O)c3c(Cl)cccc3C(F)(F)F)cn(-c3ccc(C(=O)O)cc3)c12 [Compound 7, 4-[3-[2-chloro-6-(trifluoromethyl)benzoyl]-7-methyl-indol-1-yl]benzoic acid]	498
O=C(O)c1ccc(-n2cc(C(=O)c3c(Cl)cccc3C(F)(F)F)c3cccc(F)c32)nc1 [Compound 8, 6-[3-[2-chloro-6-(trifluoromethyl)benzoyl]-7-fluoro-indol-1-yl]pyridine-3-carboxylic acid]	39.5
Cc1cccc2c(C(=O)c3c(Cl)cccc3Cl)cn(-c3ccc(C(=O)O)cc3)c12 [Compound 9, 4-[3-(2,6-dichlorobenzoyl)-7-methyl-indol-1-yl]benzoic acid]	1600
COc1cccc(F)c1C(=O)c1nn(-c2ccc(C(=O)O)cc2)c2ccccc12 [Compound 10, 4-[3-(2-fluoro-6-methoxy-benzoyl)indazol-1-yl]benzoic acid]	455
O=C(O)c1ccc(-n2cc(C(=O)c3c(F)cccc3OC(F)(F)F)c3cccc(F)c32)cc1 [Compound 12, 4-[7-fluoro-3-[2-fluoro-6-(trifluoromethoxy)benzoyl]indol-1-yl]benzoic acid]	192
O=C(O)c1ccc(-n2cc(C(=O)c3c(F)cccc3OC(F)(F)F)c3cccc(F)c32)c(F)c1 [Compound 13, 3-fluoro-4-[7-fluoro-3-[2-fluoro-6-(trifluoromethoxy)benzoyl]indol-1-yl]benzoic acid]	181
O=C(O)c1ccc(-n2cc(C(=O)c3c(F)cccc3OC(F)(F)F)c3ccccc32)cc1 [Compound 14, 4-[3-[2-fluoro-6-(trifluoromethoxy)benzoyl]indol-1-yl]benzoic acid]	338

Same assay, conditions: 96 h, read-out: Inhibition of TH17 cell differentiation - Mean IC50

Structure (SMILES)	IC50 [nM]
O=C(O)c1ccc(-n2cc(Cc3c(Cl)cccc3C(F)(F)F)c3ccccc32)cc1 [Compound 2, 4-(3-{[2-chloro-6-(trifluoromethyl)phenyl]methyl}-1H-indol-1-yl)benzoic acid]	33.6
O=C(O)c1ccc(-n2cc(C(=O)c3c(Cl)cccc3C(F)(F)F)c3cncnc32)cc1 [Compound 3, 4-[5-[2-chloro-6-(trifluoromethyl)benzoyl]pyrrolo[2,3-d]pyrimidin-7-yl]benzoic acid]	356

Biological target: RORγ ligand binding domain (Homo sapiens (Human), UniProt P51449)
Test: RORγ FRET assay (SRC-1 peptide binding to RORγ ligand binding domain)
Conditions: not given

Sequence of RORγ ligand binding domain (P51449 258-518): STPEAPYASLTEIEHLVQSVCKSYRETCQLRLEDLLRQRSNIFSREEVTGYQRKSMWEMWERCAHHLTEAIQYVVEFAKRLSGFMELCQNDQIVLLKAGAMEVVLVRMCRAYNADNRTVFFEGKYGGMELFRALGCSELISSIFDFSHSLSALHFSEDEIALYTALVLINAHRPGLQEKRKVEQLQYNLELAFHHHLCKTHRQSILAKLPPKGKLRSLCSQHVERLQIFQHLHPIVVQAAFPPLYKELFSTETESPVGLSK

Structure (SMILES)	IC50 [nM]
O=C(O)c1ccc(-n2cc(Cc3c(Cl)cccc3C(F)(F)F)c3cccnc32)cc1 [Compound 1, 4-(3-{[2-chloro-6-(trifluoromethyl)phenyl]methyl}-1H-pyrrolo[2,3-b]pyridin-1-yl)benzoic acid]	196

Same assay, conditions: read-out: RORγ FRET - Mean IC50

Structure (SMILES)	IC50 [nM]
O=C(O)c1ccc(-n2cc(Cc3c(Cl)cccc3C(F)(F)F)c3ccccc32)cc1 [Compound 2, 4-(3-{[2-chloro-6-(trifluoromethyl)phenyl]methyl}-1H-indol-1-yl)benzoic acid]	71.8
